Values quoted from earlier work in patent US5990277A, “Semipeptoid farnesyl protein transferase inhibitors and analogs thereof” (Yissum Research Development Company of the Herbrew …, priority 1996, dated 1999).

Tests used:
[1] = target: farnesyl protein transferase (Homo sapiens, UniProt P49354+P49356); settings: literature; cited from earlier work
[2] = test system: RatI cells transformed with viral H-ras; settings: cited from earlier work
[3] = test system: human adenocarcinoma cell line PSN-1; settings: PSN-1 cells, altered K-ras and p53 genes; cited from earlier work
tumors in nude mice = settings: cited from earlier work
[4] = test system: protein farnesyl transferase in cells; settings: cited from earlier work
[5] = test system: MMTV-v-Ha-ras transgenic mice bearing palpable tumors; settings: daily administration; cited from earlier work
met18b-2 cells = settings: cited from earlier work
[6] = test system: Ras processing in cells transformed with v-ras; settings: cited from earlier work
v-ras-transformed cells = settings: cited from earlier work
[7] = test system: cells transformed by either v-raf or v-mos oncogenes; settings: cited from earlier work

CC[C@H](C)[C@@H](CO[C@@H](Cc1ccccc1)C(=O)N[C@@H](CCS(C)(=O)=O)C(=O)OC)NC[C@@H](N)CS [L-739,749]
farnesyl protein transferase inhibitory potency in vitro [1]: moderate inhibitor
anchorage-independent growth [2]: suppressing the anchorage-independent growth
anchorage-independent growth [3]: inhibit the anchorage-independent growth
growth of tumors (tumors in nude mice): suppress the growth of tumors
inhibitory activity in cells compared to compound L-739,750 [4]: superior inhibitory activity

CC[C@H](C)[C@@H](CO[C@@H](Cc1ccccc1)C(=O)N[C@@H](CCS(C)(=O)=O)C(=O)OC(C)C)NC[C@@H](N)CS [L-744,832]
farnesyl protein transferase inhibitory potency in vitro [1]: potent and selective inhibitor
tumor response [5]: caused tumor regression

COC(=O)[C@H](CCSC)NC(=O)CN1C(=O)C(N(C)C(=O)[C@@H](N)CS)N=C(c2ccccc2)c2ccccc21 (stereo partly drawn) [BZA-5B]
inhibitory potency in cells versus parent compound BZA-2B (met18b-2 cells): much more potent inhibitor

CC[C@H](C)[C@H](NC[C@@H](NC[C@@H](N)CS)[C@@H](C)CC)C(=O)NC1CCOC1=O (stereo partly drawn) [L-731,734, N-{2(S)-[2(R)-amino-3-mercaptopropylamino]-3(S)-methylpentyl}isoleucyl-homoserine lactone]
farnesyl protein transferase inhibitory potency in vitro [1]: less potent
effect on Ras processing in cells [6]: efficiently inhibit Ras processing
colony formation in soft agar (v-ras-transformed cells): decreasing the ability of v-ras-transformed cells to form colonies
efficiency of colony transformation [7]: no effect on the efficiency of colony transformation
